# Reference: the METLIN SMRT retention time set (Domingo-Almenara et al. 2019)
# Assay: gradient 5% acetonitrile 3 min, to 50% in 2 min, to 85% in 15 min, held 3 min, 100 µL/min
# Details: column: Zorbax Extend-C18 2.1 x 50 mm; eluents: water / acetonitrile, 0.1% formic acid
# Procedure, shortened: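 Mixtures of ~100 pure standards were chromatographed on a Zorbax Extend-C18 column (2.1 × 50 mm, 1.8 μm) at 100 μL/min using water and acetonitrile, each with 0.1% formic acid. Detection used a quadrupole time-of-flight mass spectrometer in positive and negative ionization mode, and data collection spanned 3 months. Retention time was obtained from adduct peaks picked computationally and each checked manually.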
row,RP-LC retention time [s],Structure (SMILES)
1,753,CC(=O)c1ccc(N2CCN(S(=O)(=O)CCCOc3ccc(F)cc3)CC2)cc1
2,660,O=C(Cn1c2ccccc2n2c(=O)cc(-c3ccncc3)nc12)NC1CCCC1
3,1200,CC(C)(C)NC(=O)c1cc2c(s1)N(CC1CC1)CCCC2
4,947,CCn1c(=O)n(CC)c2cc(NC3=C(C(=O)Nc4ccccc4)S(=O)(=O)c4ccccc43)ccc21
5,1090,O=C(NCCC1=CCCCC1)C1CCN(S(=O)(=O)c2ccc(-c3noc(C4CC4)n3)cc2)CC1
6,769,Cc1oc(C2CCN(C(=O)c3cc(F)ccc3F)CC2)nc1C(=O)N1CCCC1
7,720,O=C(CSc1ncccn1)N1CCc2ccccc21
8,731,O=C(Cc1csc(-n2cccc2)n1)Nc1ccc(-n2cnnn2)cc1
9,672,Cn1ncc2c3ccccc3n(CCCC(=O)NCCCN3CCN(c4ccccc4)CC3)c2c1=O
10,1270,COc1ccccc1N1CCN(c2cc(SCC(=O)Nc3cccc(Cl)c3F)ncn2)CC1
11,1400,O=S(=O)(NCCC1=CCCCC1)c1ccccc1-c1nc(-c2cccc(F)c2)no1
12,576,COc1cccc2cc(C(=O)N3CCN(c4ccccn4)CC3)oc12
13,745,Cc1ccccc1CNc1nc2ccncc2n(C(C)C)c1=O
14,830,O=C(Cn1c(=O)c2cc(-c3cccs3)nn2c2ncccc21)NCc1ccccc1
15,1100,COc1ccc(-c2cc3ccccc3[nH]2)cc1
16,620,CCCN(Cc1ccc(OC)c(OC)c1)Cc1cc(=O)n2cccc(C)c2n1
17,714,CC(C)n1c(=O)c(NCc2ccccc2C(F)(F)F)nc2ccncc21
18,768,O=C(Cn1ccc2c(SCc3ccccc3)nccc21)N1CCN(c2ccccc2)CC1
19,546,Nc1cccc(-c2ccc(N3CCOCC3)nn2)c1
20,844,CCc1nc2onc(C)c2c(=O)n1CC(=O)NCCCc1ccccc1
21,873,Cc1ccc(Nc2nc(C(=O)NC(C)Cc3ccco3)nc3ccccc23)cc1 (stereo not given)
22,766,Cc1cc(-c2nnc(NC(=O)c3ccc4c(c3)OCCO4)o2)c(C)o1
23,810,O=C(C1CCN(c2nnc(-c3ccccc3)o2)CC1)N1CCCCCC1

row,RP-LC retention time [s],Structure (SMILES)
1,819,COC1C(=O)N(CC2CC2)C12CCN(S(=O)(=O)Cc1ccccc1)CC2 (stereo not given)
2,684,O=S(=O)(NCCc1c[nH]c2ncccc12)c1ccc(Br)cc1
3,859,O=C(CN1C(=O)C(C(=O)N2CCCC2)Sc2ccccc21)N1CCN(c2ccccc2F)CC1 (stereo not given)
4,656,O=C(NCCc1cccs1)c1cccc(N2CCNC(c3ccccc3)C2)n1 (stereo not given)
5,893,Cc1ccc(Cn2c(=O)c(SCC(=O)NC3CC3)nc3ccccc32)cc1
6,688,Cc1nc(NC(=O)c2ccccc2)nc2cc3c(cc12)OCO3
7,858,COc1ccc(-c2noc(C3CCCN3C(=O)Nc3cccc(C)c3C)n2)cc1 (stereo not given)
8,1070,Cc1cc2c(cc1C)N(CC(=O)Nc1ccc(F)cc1F)C(=O)CC(c1cccs1)=N2
9,1320,CCN(C(=O)c1ccc(C)cc1)c1nc(-c2ccc(C)cc2)cs1
10,862,O=C(c1cc2ccccc2[nH]1)N1CC2CN(S(=O)(=O)c3cccc(F)c3)CC(C1)O2
11,1000,COc1ccc(C2C(C)C(=O)C(C)C(c3ccc(OC)cc3)N2N=O)cc1 (stereo not given)
12,625,COc1cccc(CNC(=O)N2CCCCC2c2nncn2C)c1 (stereo not given)
13,666,CCC1CN2C=Nc3oc(C)c(C(=O)NCCc4ccccc4)c3C2=N1 (stereo not given)
14,964,O=C(Cn1nc2c(N3CCN(c4ccccc4)CC3)nccn2c1=O)Nc1cccc(Cl)c1
15,1030,CCOc1cccc(-c2noc(Cn3nc(-c4ccc(OC)cc4)ccc3=O)n2)c1
16,733,Cc1cccc(CN2CCCN(c3ncccc3-c3nc(C(C)C)no3)CC2)c1
17,998,O=C(Nc1c(C(=O)NCCc2ccccc2)[nH]c2ccc(F)cc12)c1ccccc1
18,753,Cc1nc2cc(N3CC(C(=O)Nc4ccc(F)c(C)c4)CC3=O)ccc2o1 (stereo not given)
19,933,O=C(Cn1cnc2c(-c3ccc(Cl)cc3)csc2c1=O)NC1CCCC1
20,942,COC(=O)C1=CN(c2cccc(OC)c2)c2cc(Br)ccc2S1(=O)=O
21,602,O=C(NCCN1CCOCC1)c1ccc2c(c1)CCCN2C(=O)c1ccccc1F
22,835,Cc1ccc(C2CCCN2C(=O)c2nc3nc(C)cc(C(F)F)n3n2)cc1 (stereo not given)
23,684,CC1(CNC(=O)NCc2cccc(F)c2)CCOCC1

row,RP-LC retention time [s],Structure (SMILES)
1,1040,C=C(C)CNc1nc(-c2ccccc2)c(-c2ccccc2)s1
2,601,CC(=O)N1c2ccc(S(=O)(=O)N3CCCCC3)cc2CC1C(=O)NCCN(C)C (stereo not given)
3,590,CCCNC(=O)N1CCCC(c2nn[nH]n2)C1 (stereo not given)
4,1010,CCc1noc(-c2nc(-c3ccccc3F)no2)n1
5,645,CCN(CC)CCNC(=O)c1cc(Br)c(N)cc1OC
6,1130,CCc1cc(C(=O)Nc2ccc(C#N)cc2)nc2cc(-c3ccco3)nn12
7,1180,CCOC(=O)c1c(C)c(C(=O)Nc2cc(Cl)ccc2OC)c(C)n1CC
8,648,CCc1ccc(CNC(=O)c2cc3ccncc3n2C)cc1
9,801,O=C(CN1C(=O)NC(c2ccccc2Cl)C2=C1COC2=O)NCc1ccccc1Cl (stereo not given)
10,778,Cc1c(C(=O)N2CCOCC2)cnn1-c1ccc(-c2nc(C3CC3)no2)cn1
11,1100,O=S(=O)(c1ccccc1Cl)N1CCC(c2noc(COCc3ccccc3)n2)CC1
12,1060,O=C(NCCc1ccccc1)Nc1nccn(-c2ccc3c(c2)CCC3)c1=O
13,963,CCOc1ccc(C2C(=O)N(C3CCCCCC3)CC(=O)N2Cc2ccco2)cc1OC (stereo not given)
14,612,COCc1noc([C@@H]2CN(Cc3cccc(OC)n3)C[C@H]2COC)n1
15,767,COc1ccccc1CNC(=O)Cn1nc2c(N3CCSCC3)nccn2c1=O
16,662,Cc1ccc(CNC(=O)C2CCN(c3cncnc3N3CCCC3)CC2)cc1
17,863,O=C(C1CCCC1)N1CCC(c2noc(-c3ccncc3)n2)C1 (stereo not given)
18,969,O=c1n(Cc2ccccc2F)nc2c(S(=O)(=O)N3CCN(c4ccc(F)cc4)CC3)cccn12
19,863,CCn1c(=O)sc2cc(S(=O)(=O)N3CCC(C(=O)Nc4ccc5c(c4)OCO5)CC3)ccc21
20,1210,Cc1ccc(CNC(=O)C2CCCN(c3nc4c(s3)c(C)nn4-c3ccc(C)cc3)C2)cc1 (stereo not given)
21,752,CN1c2cc(F)ccc2C(=O)NC12CCN(C(=O)Nc1ccc(F)cc1F)CC2
22,974,Cc1ccc(NC(=O)C(C)C2CCN(C(=O)Nc3ccc(F)cc3)CC2)cc1Cl (stereo not given)
23,973,Cc1nn(CC(=O)NCCc2ccco2)c(=O)c2c(-n3cccc3)n(-c3ccc(Cl)cc3)nc12

row,RP-LC retention time [s],Structure (SMILES)
1,775,Cc1ccc(C(=O)OCCN2C(=O)c3ccccc3C2=O)cc1
2,847,Cc1nnc(-c2cc(C)n(CC(=O)Nc3ccc(Br)cc3C)c2C)o1
3,962,O=C(NCc1nc(-c2ccc(N3CCCC3)cc2)no1)c1cccs1
4,599,COc1ccccc1OC(C)C(=O)N1CCN(c2cc(C)n3cnnc3n2)CC1 (stereo not given)
5,599,COc1cc2c(cc1OC)C(C(=O)NCCN(C)C)C(c1ccccc1F)N(C)C2=O (stereo not given)
6,842,CCCCNC(=O)CCc1nc(N2CCCCCC2)c2c(C)noc2n1
7,856,CN(C(=O)CN1C(=O)C(O)(c2cccc(F)c2)c2ccccc21)c1ccccc1 (stereo not given)
8,942,COC(=O)c1ccc(-c2csc(NC(=O)C3CCCC3)n2)cc1
9,611,Cn1c(=O)c(N2CCC(C(=O)NCCN3CCCCCC3)CC2)nc2cccnc21
10,556,COC(=O)N1CCc2ccccc2C1C(=O)NCCCn1ccnc1 (stereo not given)
11,597,CC1CCN(c2cc(-n3cnc(C(=O)N4CCN(C5CCCCC5)CC4)c3)ncn2)CC1
12,704,COc1ccc(NC(=O)c2c(C)oc3nc(C)nc(N4CCCC4)c23)cc1
13,592,Cc1ccc(C(=O)NCCN2CCCC2)cc1NC(=O)C1=CSCCO1
14,889,CCN1C(=O)c2cccc3c(NC(=O)Nc4cccc(Cl)c4)ccc1c23
15,898,CCCc1cc(C2CCCN2C(=O)c2c(OC)cccc2OC)no1 (stereo not given)
16,691,CC(C)NC(=O)C1CC(=O)N(CCc2c[nH]c3ccc(F)cc23)C1 (stereo not given)
17,802,Cc1nn(-c2ccc(Nc3ccc(NC(=O)c4ccccc4F)cc3)nn2)c(C)c1C
18,868,Cc1cc(C2CCCN2C(=O)c2cc(-c3ccccc3)no2)no1 (stereo not given)
19,736,CCCCN(C)C(=O)c1cn2cc(Cl)ccc2n1
20,718,c1ccc(-n2nnc(-c3noc(-c4ccccn4)n3)c2-c2ccncc2)cc1

row,Structure (SMILES),RP-LC retention time [s]
1,Cn1ncc(N2CCCC(CC(=O)N3CCC4(CC3)OCCO4)C2)cc1=O (stereo not given),625
